Read-outs that look alike come from different tables or passages of the source.
Assays:
Assay type in all cases: biochemical
human FAK = target: T1, human FAK (Homo sapiens, UniProt Q05397); test: FAK autophosphorylation inhibition, time resolved fluorescence (HTRF) assay; settings: 10 μM (values without asterisk); read-out: FAK % inhib at 10 μM
T1 construct: The complete cDNA of human FAK; made in house; host or cells: baculovirus expression system (vector pFastBac HTc)
In short: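 Autophosphorylation was detected by europium-cryptate anti-pTyr and XL665 anti-His energy transfer, percent inhibition from the 665/620 ratio relative to no-compound wells. Enzyme: His-FAK full length, 6.6 µg/ml, incubated 1 h at 37 °C, pH 7.2, 15 µM ATP.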

[1] = target: T2, human IGF1R cytoplasmic domain (Homo sapiens, UniProt P08069); test: IGF1R autophosphorylation inhibition, time resolved fluorescence (HTRF) assay; settings: read-out: IGF1R % inhib at 10 μM
T2 construct: The human IGF1R cytoplasmic domain was cloned; made in house; host or cells: SF21 insect cells (baculovirus)
In short: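 GST-tagged human IGF1R cytoplasmic domain from SF21 cells incubated with compound in 50 mM Hepes pH 7.5, 5 mM MnCl2, 50 mM NaCl, […] ATP. Autophosphorylation detected by HTRF (Eu-K anti-phosphotyrosine, XL665 anti-GST) after EDTA/KF stop; percentage inhibition versus no-compound control.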

Aurora2 kinase = target: T3, Aurora2 kinase (Homo sapiens, UniProt O14965); test: Aurora2 kinase radioactivity scintillation assay using nickel chelate (NuMA substrate); settings: read-out: Aurora2 % inhib at 10 μM
T3 construct: A complete recombinant Aurora2 enzyme; His tag (N); made in house; host or cells: E. coli
T3 sequence (O14965 1-403): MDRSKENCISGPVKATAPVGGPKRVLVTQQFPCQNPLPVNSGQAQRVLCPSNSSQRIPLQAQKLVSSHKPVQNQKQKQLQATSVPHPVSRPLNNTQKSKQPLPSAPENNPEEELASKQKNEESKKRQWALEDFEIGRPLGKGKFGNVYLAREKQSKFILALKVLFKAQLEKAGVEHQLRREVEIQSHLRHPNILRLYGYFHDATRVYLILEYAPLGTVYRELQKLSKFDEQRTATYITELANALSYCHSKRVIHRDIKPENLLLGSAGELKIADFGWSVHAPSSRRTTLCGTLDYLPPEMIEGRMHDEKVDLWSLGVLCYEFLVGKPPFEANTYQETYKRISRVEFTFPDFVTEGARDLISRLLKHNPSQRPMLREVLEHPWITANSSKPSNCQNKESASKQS
In short: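 Read-out is 33P incorporation into His-NuMA (Q1687-H2101, 0.5 μM) captured on nickel chelate, after 30 min at 37 °C with 0.02 μM His-Aurora2 and 1 μM ATP. Expressed as percentage inhibition of uncompounded control activity, background subtracted.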

human KDR enzyme = target: T4, human KDR enzyme (Homo sapiens, UniProt P35968); test: KDR substrate (PLCγ) phosphorylation, scintillation assay; settings: read-out: KDR % inhib at 10 μM
T4 construct: The cytoplasmic domain of the human KDR enzyme; GST; made in house; host or cells: SF21 insect cells (baculovirus)
In short: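 Values are percent inhibition relative to the compound-free control, read by scintillation counting of 33P incorporation after EDTA stop. Baculovirus/SF21-expressed GST-KDR cytoplasmic domain (100 ng) acted for 1 h at 37 °C in pH 7.2 MOPS kinase buffer. The substrate was GST-PLCγ SH2-SH3 (2 μg), added with γ33P-ATP and 2 μM unlabeled ATP.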

T2 sequence (P08069 960-1367 limits assumed): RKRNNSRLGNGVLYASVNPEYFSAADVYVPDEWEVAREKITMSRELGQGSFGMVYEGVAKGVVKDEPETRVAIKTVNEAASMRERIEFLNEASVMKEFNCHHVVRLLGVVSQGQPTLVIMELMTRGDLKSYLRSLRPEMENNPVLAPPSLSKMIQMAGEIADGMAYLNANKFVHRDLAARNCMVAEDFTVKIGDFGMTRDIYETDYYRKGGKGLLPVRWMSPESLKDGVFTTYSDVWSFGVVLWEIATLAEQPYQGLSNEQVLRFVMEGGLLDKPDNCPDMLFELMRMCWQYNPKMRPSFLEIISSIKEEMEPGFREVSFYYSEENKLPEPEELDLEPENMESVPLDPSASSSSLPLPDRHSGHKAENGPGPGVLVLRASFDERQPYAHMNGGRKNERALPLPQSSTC
T4 sequence (P35968 786-1356 limits assumed): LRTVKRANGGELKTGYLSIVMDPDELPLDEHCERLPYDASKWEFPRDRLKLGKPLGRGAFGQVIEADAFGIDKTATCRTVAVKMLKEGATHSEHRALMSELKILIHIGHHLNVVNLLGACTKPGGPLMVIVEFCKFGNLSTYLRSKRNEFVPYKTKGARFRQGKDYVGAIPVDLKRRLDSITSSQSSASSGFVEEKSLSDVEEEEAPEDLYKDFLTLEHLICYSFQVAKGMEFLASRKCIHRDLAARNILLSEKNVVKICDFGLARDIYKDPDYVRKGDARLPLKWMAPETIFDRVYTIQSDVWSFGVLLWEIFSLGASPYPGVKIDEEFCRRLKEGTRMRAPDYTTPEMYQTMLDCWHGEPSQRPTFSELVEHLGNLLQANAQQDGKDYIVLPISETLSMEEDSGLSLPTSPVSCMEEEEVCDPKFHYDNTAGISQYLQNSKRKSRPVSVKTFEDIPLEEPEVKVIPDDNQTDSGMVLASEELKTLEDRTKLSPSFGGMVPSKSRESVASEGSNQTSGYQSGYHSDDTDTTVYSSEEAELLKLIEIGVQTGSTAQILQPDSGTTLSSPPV
T1 sequence (Q05397 whole entry): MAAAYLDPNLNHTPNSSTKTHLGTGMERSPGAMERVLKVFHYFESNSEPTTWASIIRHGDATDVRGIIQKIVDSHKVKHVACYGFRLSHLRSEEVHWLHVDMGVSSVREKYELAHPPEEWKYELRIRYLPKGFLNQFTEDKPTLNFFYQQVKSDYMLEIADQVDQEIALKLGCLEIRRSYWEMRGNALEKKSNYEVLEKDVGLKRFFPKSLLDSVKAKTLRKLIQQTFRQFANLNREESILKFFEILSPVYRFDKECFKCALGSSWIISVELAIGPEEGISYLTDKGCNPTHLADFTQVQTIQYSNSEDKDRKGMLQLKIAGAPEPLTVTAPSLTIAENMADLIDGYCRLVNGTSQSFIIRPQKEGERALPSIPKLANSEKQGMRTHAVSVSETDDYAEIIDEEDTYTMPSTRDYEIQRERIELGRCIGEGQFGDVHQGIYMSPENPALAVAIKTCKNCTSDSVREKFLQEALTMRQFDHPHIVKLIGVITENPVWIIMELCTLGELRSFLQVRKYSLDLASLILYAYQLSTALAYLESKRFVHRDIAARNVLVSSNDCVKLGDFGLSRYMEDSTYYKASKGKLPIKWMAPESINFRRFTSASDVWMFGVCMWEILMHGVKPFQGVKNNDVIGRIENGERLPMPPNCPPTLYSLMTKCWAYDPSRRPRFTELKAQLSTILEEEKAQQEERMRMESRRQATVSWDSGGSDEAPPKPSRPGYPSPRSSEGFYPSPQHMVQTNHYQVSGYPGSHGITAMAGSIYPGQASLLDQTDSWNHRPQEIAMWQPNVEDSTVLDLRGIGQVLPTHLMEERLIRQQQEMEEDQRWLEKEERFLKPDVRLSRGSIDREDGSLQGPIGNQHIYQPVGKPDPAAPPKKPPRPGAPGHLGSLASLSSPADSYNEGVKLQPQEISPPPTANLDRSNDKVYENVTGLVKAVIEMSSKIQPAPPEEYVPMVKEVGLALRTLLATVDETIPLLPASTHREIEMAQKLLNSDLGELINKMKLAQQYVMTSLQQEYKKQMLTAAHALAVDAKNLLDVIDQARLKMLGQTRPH

Row | Compound | inhibition at 10 µM (human FAK) | inhibition at 10 µM ([1]; 10 μM) | inhibition at 10 µM (Aurora2 kinase; 10 μM) | inhibition at 10 µM (human KDR enzyme; 10 μM) | inhibition at 10 µM [1] | inhibition at 10 µM (Aurora2 kinase) | inhibition at 10 µM (human KDR enzyme)
1 | CS(=O)(=O)c1ccccc1S(=O)(=O)Nc1ccc2[nH]nc(-c3ccc(OC(F)(F)F)cc3)c2c1 [Example 206, N-[3-(4-Trifluoromethoxy-phenyl)-1H-indazol-5-yl]-2-methanesulfonyl-benzenesulfonamide] | 58% | 61% | 85% | 48% | – | – | –
2 | CS(=O)(=O)c1ccccc1S(=O)(=O)Nc1ccc2[nH]nc(-c3cccnc3)c2c1 [Example 59, 2-Methylsulfonyl-N-(3-pyridin-3-yl-1H-indazol-5-yl)benzenesulfonamide] | 95% | 88% | 100% | 40% | – | – | –
3 | C[Si](C)(C)C#Cc1cccc(-c2n[nH]c3ccc(NS(=O)(=O)c4ccccc4S(C)(=O)=O)cc23)c1 [Example 91, 2-Methylsulfonyl-N-[3-(3-trimethylsilanylethynylphenyl)-1H-indazol-5-yl]benzenesulfonamide] | 95% | – | – | – | 7% | 11% | 35%
4 | CS(=O)(=O)c1ccccc1S(=O)(=O)Nc1ccc2[nH]nc(-c3cccc(OCc4ccccc4)c3)c2c1 [Example 223, N-[3-(3-Benzyloxyphenyl)-1H-indazol-5-yl]-2-methanesulfonyl-benzenesulfonamide] | 70% | 0% | 31% | 23% | – | – | –
5 | CCc1ccc(-c2n[nH]c3ccc(NS(=O)(=O)c4ccccc4S(C)(=O)=O)cc23)cc1 [Example 193, N-[3-(4-Ethylphenyl)-1H-indazol-5-yl]-2-methanesulfonyl-benzenesulfonamide] | 76% | 65% | 88% | 56% | – | – | –
6 | CS(=O)(=O)c1ccccc1S(=O)(=O)Nc1ccc2[nH]nc(-c3cccc4c3oc3ccccc34)c2c1 [Example 169, N-(3-(Dibenzofuran-4-yl)-1H-indazol-5-yl)-2-methanesulfonyl-benzenesulfonamide] | 22% | 13% | 52% | 66% | – | – | –
7 | O=S(=O)(Nc1ccc2[nH]nc(-c3ccccc3)c2c1)c1cccc2cccnc12 [Example 111, N-(3-Phenyl-1H-indazol-5-yl)quinoline-8-sulfonamide] | 66% | 99% | 100% | 83% | – | – | –
8 | CS(=O)(=O)c1ccccc1S(=O)(=O)Nc1ccc2[nH]nc(-c3ccc(Br)cc3)c2c1 [Example 161, N-[3-(4-Bromophenyl)-1H-indazol-5-yl]-2-methanesulfonyl-benzenesulfonamide] | 61% | 75% | 89% | 65% | – | – | –
9 | CS(=O)(=O)c1ccccc1S(=O)(=O)Nc1ccc2[nH]nc(-c3ccccc3Cl)c2c1 [Example 187, N-[3-(2-Chlorophenyl)-1H-indazol-5-yl]-2-methanesulfonyl-benzenesulfonamide] | 46% | 52% | 67% | 49% | – | – | –
10 | CCOc1ccccc1-c1n[nH]c2ccc(NS(=O)(=O)c3ccccc3S(C)(=O)=O)cc12 [Example 189, N-[3-(2-Ethoxyphenyl)-1H-indazol-5-yl]-2-methanesulfonyl-benzenesulfonamide] | 70% | 31% | 62% | 20% | – | – | –
11 | CS(=O)(=O)c1ccccc1S(=O)(=O)Nc1ccc2[nH]nc(-c3ccc(C#N)cc3)c2c1 [Example 216, N-[3-(4-Cyanophenyl)-1H-indazol-5-yl]-2-methanesulfonyl-benzenesulfonamide] | 96% | 86% | 91% | 32% | – | – | –
12 | CC1(C)[C@H]2CCC1(CS(=O)(=O)Nc1ccc3[nH]nc(-c4ccccc4)c3c1)C(=O)C2 [Example 148, C-(7,7-Dimethyl-2-oxo-bicyclo[2.2.1]hept-1-yl)-N-(3-phenyl-1H-indazol-5-yl)-methanesulfonamide] | 36% | 30% | 77% | 61% | – | – | –
13 | CC(C)(C)c1ccc(-c2n[nH]c3ccc(NS(=O)(=O)c4ccccc4S(C)(=O)=O)cc23)cc1 [Example 197, N-[3-(4-tert-Butylphenyl)-1H-indazol-5-yl]-2-methanesulfonyl-benzenesulfonamide] | 43% | 0% | 73% | 41% | – | – | –
14 | CS(=O)(=O)c1ccccc1S(=O)(=O)Nc1ccc2[nH]nc(Nc3ccccc3)c2c1 [Example 83, 2-Methylsulfonyl-N-(3-phenylamino-1H-indazol-5-yl)-benzenesulfonamide] | 92% | 100% | 93% | 60% | – | – | –

Continued, in another order:

Row | inhibition at 10 µM (human FAK) | inhibition at 10 µM ([1]; 10 μM) | inhibition at 10 µM (Aurora2 kinase; 10 μM) | inhibition at 10 µM (human KDR enzyme; 10 μM) | Compound | inhibition at 10 µM [1] | inhibition at 10 µM (Aurora2 kinase) | inhibition at 10 µM (human KDR enzyme)
15 | 51% | 27% | 49% | 12% | CS(=O)(=O)c1ccccc1S(=O)(=O)Nc1ccc2[nH]nc(-c3cc(Cl)ccc3Cl)c2c1 [Example 225, N-[3-(2,5-Dichlorophenyl)-1H-indazol-5-yl]-2-methanesulfonyl-benzenesulfonamide] | – | – | –
16 | 94% | 76% | 94% | 73% | CS(=O)(=O)c1ccccc1S(=O)(=O)Nc1ccc2[nH]nc(-c3ccc4c(c3)OCO4)c2c1 [Example 196, N-[3-(Benzo[1,3]dioxol-5-yl)-1H-indazol-5-yl]-2-methanesulfonyl-benzenesulfonamide] | – | – | –
17 | 48% | 0% | 53% | 22% | CS(=O)(=O)c1ccccc1S(=O)(=O)Nc1ccc2[nH]nc(-c3cc4cccnc4[nH]3)c2c1 [Example 57, 2-Methylsulfonyl-N-[3-(1H-pyrrolo[2,3-b]pyridin-2-yl)-1H-indazol-5-yl]benzenesulfonamide] | – | – | –
18 | 97% | 100% | 100% | 97% | COc1ccc2[nH]c(-c3n[nH]c4ccc(NS(=O)(=O)c5ccccc5S(C)(=O)=O)cc34)cc2c1 [Example 58, 2-Methylsulfonyl-N-[3-(5-methoxy-1H-indol-2-yl)-1H-indazol-5-yl]benzenesulfonamide] | – | – | –
19 | 90% | 66% | 86% | 42% | CS(=O)(=O)c1ccccc1S(=O)(=O)Nc1ccc2[nH]nc(-c3ccc(Cl)c(Cl)c3)c2c1 [Example 205, N-[3-(3,4-Dichlorophenyl)-1H-indazol-5-yl]-2-methanesulfonyl-benzenesulfonamide] | – | – | –
20 | 40% | 53% | 86% | 85% | CN(C)c1c(F)c(F)c(S(=O)(=O)Nc2ccc3[nH]nc(-c4cc5ccccc5[nH]4)c3c2)c(F)c1F [Example 86, 4-Dimethylamino-2,3,5,6-tetrafluoro-N-[3-(1H-indol-2-yl)-1H-indazol-5-yl]benzenesulfonamide] | – | – | –
21 | 93% | 73% | 94% | 64% | CS(=O)(=O)c1ccccc1S(=O)(=O)Nc1ccc2[nH]nc(-c3cccc(O)c3)c2c1 [Example 200, N-[3-(3-Hydroxyphenyl)-1H-indazol-5-yl]-2-methanesulfonyl-benzenesulfonamide] | – | – | –
22 | 90% | 72% | 89% | 47% | CS(=O)(=O)c1ccccc1S(=O)(=O)Nc1ccc2[nH]nc(-c3ccc(F)c(F)c3)c2c1 [Example 192, N-[3-(3,4-Difluorophenyl)-1H-indazol-5-yl]-2-methanesulfonyl-benzenesulfonamide] | – | – | –

Source: patent US6858638B2, “Substituted indazoles, compositions containing them, method of production and use” (Aventis Pharma S.A., priority 2002, dated 2005)
